Where “and” joins values, the source holds several entries; their conditions need not be identical. Identical values can stand only once.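 Interpolation was linear, between the two tested concentrations surrounding the appropriate level; five concentrations were tested over 48 hours in 96-well plates. Abbreviation: GI50, concentration required for 50% inhibition of growth. TGI: concentration producing complete growth inhibition.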
System: MDA-MB-468 breast
Experiment: NCI-60 cell line screen, 48 h

Row | SMILES | GI50 | TGI
1 | COc1cc(-c2csc(NC(=O)Nc3cc(C(F)(F)F)cc(C(F)(F)F)c3)n2)cc(OC)c1OC | 1330 nM | 9280 nM
2 | C[n+]1c2ccccc2c(Nc2ccc(NS(=O)(=O)CCCCN=C(N)N)cc2)c2ccc(N)cc21 | 989 nM | 26100 nM
3 | CN1CCC(C(=O)Nc2n[nH]c3nc(-c4ccc(O)cc4)c(Br)cc23)CC1 | 486 nM and 779 nM | 1410 nM and 2830 nM
4 | COc1ccc(C2=Nc3c/c(=C\c4c(O)[nH]c5ccc(Cl)cc45)ccc3=N2)cc1 | 1480 nM | 3070 nM
5 | Cc1cc([N+](=O)[O-])ccc1NS(=O)(=O)c1cc(Cl)ccc1Cl | 1660 nM | 7610 nM
6 | COc1ccc2c(c1)CCc1[nH]nc(-c3cc(OC)c(OC)c(OC)c3)c1-2 | < 10 nM | < 10 nM
7 | CSc1n(Cc2ccc3ccccc3c2)c(C)c[n+]1Cc1ccc2ccccc2c1 | 211 nM | 672 nM
8 | Cn1c(/C=C(\C#N)c2cccc(C(F)(F)F)c2)nc2c(N3CCOCC3)nc(Cl)nc21 | 432 nM | 1630 nM
9 | O=CC(Br)C(Br)c1ccccc1 (stereo unspecified) | 1480 nM | 3650 nM
10 | CCOc1ccc2nc(-c3cccc(OCC(=O)NC(C)C)c3)nc(Nc3ccc(-c4cn[nH]c4)cc3)c2c1 | 2310 nM | 14900 nM
11 | COc1ccc(-c2nn(-c3cccc(Cl)c3)cc2-c2c(C#N)c(=O)n3[nH]c(-c4ccc(C)cc4)nc3c2C#N)cc1 | 1050 nM | 2880 nM
12 | Cc1cccc(Cl)c1NC(=O)c1cnc(Nc2cc(N3CCOCC3)cc(N3CCOCC3)c2)s1 | 326 nM | 2770 nM
13 | CC1(C)N=C(N)N=C(N)N1c1ccc(CCc2ccc(Cl)cc2S(=O)(=O)F)c(Cl)c1 | 3590 nM | 24200 nM
14 | Cn1cc(-c2nc(-c3c[nH]c4ccncc34)cs2)c2cc(F)ccc21 | 1400 nM | 2890 nM
15 | c1cncc(-c2nc3ccccc3s2)c1 | > 100000 nM | > 100000 nM
16 | COc1ccc([I+]c2ccccc2)cc1 | 253 nM | > 36600 nM
17 | COc1ccc(-c2cn(-c3cccc(C(=O)/C=C/c4ccc(O)c(OC)c4)c3)c(=O)[nH]2)cc1 | 5460 nM | > 100000 nM
18 | CN[C@@H]1C[C@H]2O[C@@](C)([C@@H]1OC)n1c3ccccc3c3c4c(c5c6ccccc6n2c5c31)C(=O)N[C@H]4O | 17.6 nM | 105 nM
19 | CN1C(=O)C(=Cc2cn(Cc3ccccc3)c3ccccc23)C(=O)N(C)C1=O | 63.9 nM | 158 nM
20 | Nc1nc2ccc3[nH]ncc3c2c2c1CCCC2 | 1460 nM | 2920 nM
21 | O=[N+]([O-])c1ccc2nc(/C=C(\O)c3ccccc3)c(/C=C(\O)c3ccccc3)nc2c1 | 4000 nM | 61700 nM
22 | COc1ccc(/C(=N\NC(N)=S)c2ccc(Cl)cc2)cc1OC | 1910 nM | 7990 nM

Row | SMILES | GI50 | TGI
23 | COc1ccc2c(c1)c1nc3cc(C)c(C)cc3nc1n2CCN(C)C | 761 nM | 2450 nM
24 | O=C1NC(=O)C(c2ccc(Cl)cc2)=C1Nc1ccc(Cl)c(C(=O)O)c1 | > 25000 nM | > 25000 nM
25 | COc1cc2c(cc1OC)-c1ccc3cc4c(cc3c1N(CCN(C)C)C2)OCO4 | 210 nM | 762 nM
26 | CCCC(=O)NC(c1cccnc1)c1cc(C(C)(C)C)c2cccnc2c1O (stereo unspecified) | 2310 nM | 8980 nM
27 | O=C(NCCN1CCC(O)CC1)c1cc2c(o1)C(=O)c1ccccc1C2=O | 202 nM | 559 nM
28 | O=C(O)c1ccc2c3c(ncnc13)-c1ccccc1C2=O | > 81900 nM | > 100000 nM
29 | Cc1cc(Nc2ccc(F)cc2)nc(N2CCN(c3ccnc4cc(Cl)ccc34)CC2)n1 | 2720 nM | > 100000 nM
30 | Cc1ccc(C(=O)/C(=C\c2ccc([N+](=O)[O-])cc2)S(=O)Cc2ccc(F)cc2)cc1 (stereo unspecified) | 1850 nM | 3690 nM
31 | Oc1ccc2ccccc2c1C1NN=C(c2ccccc2)S1 (stereo unspecified) | 536 nM | 3940 nM
32 | CCCOC(=O)N[C@H]1CCc2cc(OC)c(OC)c(OC)c2-c2ccc(SC)c(=O)cc21 | < 10 nM | 13500 nM
33 | CCCCOC(=O)c1ccc(NC(=O)CCl)cc1 | 1780 nM | 4080 nM
34 | CCO/C=N/C1=C(C#N)C(c2ccc(Cl)cc2)c2sc3c(C)cccc3c2O1 (stereo unspecified) | 386 nM | 14500 nM
35 | COc1cc(F)cc([C@@H](CO)NC(=O)[C@@H](C)N2Cc3ccc(-c4nc(NC5CCOCC5)ncc4Cl)cc3C2=O)c1 | 1820 nM | 17000 nM
36 | COc1ccc2c3c(c4ccccc4cc13)C(=O)N(CCN(C)CCN)C2=O | 289 nM | 1160 nM
37 | CC(C)(C)NCCC(O)c1cc2c(Cl)cc(Cl)cc2c2cc(C(F)(F)F)ccc12 (stereo unspecified) | 1590 nM | 3060 nM
38 | N#Cc1ccc(C2C3=C(CCCC3=O)OC3=C2C(=O)c2ccccc2C3=O)cc1 (stereo unspecified) | 309 nM | 867 nM
39 | CCN(CC)CCCC(C)Nc1c2ccc(Cl)cc2nc2cc(OC)c(OC)cc12 (stereo unspecified) | 1300 nM | 2830 nM
40 | COc1ccc(SC2c3ccc(C)cc3Oc3nc(N)c(C#N)c(N)c32)cc1 (stereo unspecified) | 1790 nM | 3600 nM
41 | c1ccc(Nn2c(CCCCCCCCc3nnc(COc4ccccc4)n3Nc3ccccc3)nnc2COc2ccccc2)cc1 | 12800 nM and 61600 nM | > 300000 nM
42 | COc1cc(C2c3cc4c(cc3OC3(OC)COC(=O)C23)OCO4)cc(OC)c1OC (stereo unspecified) | 616 nM | 88600 nM
43 | O=C(O)c1ccc([S-])cc1.[Au+].c1ccc(CN2[CH-]N(Cc3ccccc3)C(c3ccccc3)=C2c2ccccc2)cc1 | 188 nM | 873 nM

Source: PubChem BioAssay (NCI)
